The values below come from PubChem BioAssay (NCI).

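How tested: cells in 96-well plates exposed to compound for 48 hours at five concentrations. GI50 = concentration required for 50% inhibition of growth. TGI marks complete inhibition of growth.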

Common to all, as to test: NCI tumour cell line growth inhibition, 48 h
In assay [1] the test system is OVCAR-5 ovarian.
In assay [2] the test system is SF-268 CNS.
The test system of assay [3] is SNB-19 CNS.
In assay [4] the test system is HT29 colon.
The test system of assay [5] is K-562 leukemia.
Assay [6] relates to SK-MEL-2 melanoma.
Assay [7] has as its system HCT-15 colon.
For assay [8], the system named is MDA-MB-231 breast.
Assay [9] concerns CAKI-1 renal.
The test system of assay [10] is BT-549 breast.

Take `O=C(NCC(=O)N1CCCC1C(=O)OC(=O)C1CCCN1C(=O)CNC(=O)OCc1ccccc1)OCc1ccccc1` (centres undefined): the TGI in [1] was 90.1 µM; in [2], 89 µM; in assay [3] it was over 100 µM; in assay [4] it was 79.2 µM; in assay [5], 72.8 µM; in [6], 44.8 µM. Besides, the values for the TGI in [7], in assay [8] and in assay [9] were over 100 µM, 54.7 µM and over 100 µM, respectively.

As to `CC(C)(Br)C(Br)CCC1(C2CO2)CO1` (centres undefined), the TGI in assay [10], in [2], in assay [3], in [4], in [5] and in assay [7] was over 5 µM throughout. Also, the TGI in assay [8] and in [9] was over 5 µM in each case.

Take `CN(C)CCCNC(=O)c1cc2[nH]c3c(cnc4ccc([N+](=O)[O-])cc43)c(=O)c2n1C`: the GI50 in assay [10] was 20.2 µM; in [1], 17.8 µM; in assay [2], 15.9 µM; in [3] it was 17.7 µM; in [4], 5.93 µM; in assay [5] it was 15.8 µM. Further, the values for the GI50 in assay [6], in assay [7] and in [8] were over 100 µM, 15.2 µM and 16.9 µM, respectively. Further, the TGI in [10] was determined as 43.2 µM; in assay [1], 31.6 µM; in assay [2], 29.4 µM; in assay [3] it was 33.6 µM; in assay [4], 18.6 µM; in assay [5], 33.1 µM. Also, the TGI in assay [6] was over 100 µM; in [7] it was 31.8 µM; in [8], 30.7 µM.

As to `COc1ccc(N2C(=O)/C(=C(\C)c3cc4ccccc4oc3=O)N=C2c2cc([N+](=O)[O-])ccc2Cl)cc1`, the TGI in assay [1], in [2], in [3], in [4], in [5] and in assay [6] was over 100 µM in each case. In assay [9], this compound displayed a TGI of over 100 µM.

For the compound `CC(=O)Nc1ccc(C(=O)NN2C(=O)CSC2c2ccc([N+](=O)[O-])cc2)cc1` (centres undefined), the TGI in assay [1], in assay [2], in [3], in assay [4], in assay [5] and in assay [6] was over 100 µM throughout. In addition, the TGI in [7] and in assay [8] was over 100 µM throughout.

As for `O=C(C=P(c1ccccc1)(c1ccccc1)c1ccccc1)c1ccc(-c2cccc([N+](=O)[O-])c2)s1`, the TGI in assay [10], in [1], in assay [2], in assay [3], in assay [4] and in [5] was over 100 µM each time. The TGI in [7], in assay [8] and in assay [9] was over 100 µM each time.

As for `CCOC(=O)C1(C#N)C(c2ccccc2)CC(O)(c2ccc(OC)cc2)C(C(=O)c2ccc(OC)cc2)C1c1ccccc1` (centres undefined), the TGI in assay [1], in assay [2], in assay [3], in assay [4], in assay [5] and in [6] was over 100 µM throughout. Also, the TGI in [7] and in assay [9] was over 100 µM throughout.

With `CC(C)(C)[Si](C)(C)OCC1OC(n2ccc(N)nc2=O)C(O[Si](C)(C)C(C)(C)C)C1O[Si](C)(C)C(C)(C)C` (centres undefined), the TGI worked out at 3.73 µM in assay [10]; 3.58 µM in [1]; 7.27 µM in assay [2]; 11.4 µM in [3]; 3.02 µM in assay [4]; 4.89 µM in assay [6]. Further, the TGI is 5.25 µM in assay [7] and 22.7 µM in assay [8].

For `CCCCN(CCCC)CC(O)c1cc(-c2ccc(C(F)(F)F)cc2)nc(-c2ccc(C(F)(F)F)cc2)c1` (centres undefined), the TGI in assay [1], in assay [2], in assay [3], in assay [4], in [5] and in assay [6] was over 100 µM throughout. The TGI in [7], in [8] and in assay [9] was over 100 µM each time.

Regarding `CC(C)(C)NC(NC(C)(C)C)=C(/C=C(/Cl)[N+](=O)[O-])[N+](=O)[O-]`, the TGI in assay [1], in [2], in [3], in [4], in assay [5] and in assay [6] was over 100 µM each time. The TGI in assay [7], in assay [8] and in [9] was over 100 µM in each case.

Turning to `CC(C)CC1C(=O)NCCC(NC(=O)C(Cc2ccc(OC(C)(C)C)cc2)NC(=O)OC(C)(C)C)C(=O)NC(Cc2ccccc2)C(=O)NC(Cc2ccccc2)NC1=O` (centres undefined), the TGI in [1] is 21.2 µM; in assay [2], 36.1 µM; in assay [3], 42.4 µM; in [4], 19.6 µM; in assay [5] it was 10.3 µM; in assay [7] it was over 100 µM. In addition, the TGI in [8] was 19.9 µM; in assay [9], over 100 µM.

As to `O=c1[nH]c2c(nc1NC13CC4CC(CC(C4)C1)C3)c(=O)oc1ccccc12`, the TGI in assay [1], in assay [2], in [3], in assay [4], in assay [5] and in assay [6] was over 100 µM each time. The TGI was over 100 µM in [7] and 46 µM in assay [9].

Take `COC(=O)CCC1=CCC2(SC)C(=O)Nc3cccc1c32` (centres undefined): the TGI in assay [10], in [1], in assay [2], in assay [3], in assay [4] and in assay [6] was over 100 µM in each case. In addition, the TGI in assay [7], in assay [8] and in assay [9] was over 100 µM in each case.

With `COc1cccc2c1OC(c1ccc(Cl)cc1)C([N+](=O)[O-])=C2` (centres undefined), the TGI in assay [10] amounted to 3.38 µM; in [1] it was 7.84 µM; in [2] it was 13.9 µM; in assay [3], 17 µM; in assay [4] it was 3.21 µM; in assay [5], 24.3 µM. Also, the TGI came to 10.8 µM in assay [7], 13.8 µM in [8] and 10.7 µM in [9].

Turning to `CC(=O)c1ccc(NCc2cc(O)ccc2O)cc1`, the TGI in [1] is 44.2 µM; in [3], over 100 µM; in assay [4], over 100 µM; in assay [5] it was over 100 µM; in assay [6], 57.3 µM; in assay [7], over 100 µM. Further, the TGI was determined as 73.8 µM in assay [8] and 34.6 µM in assay [9].

Consider `CO/N=C/c1cc(OC)c(OC)c(OC)c1`, for which the TGI in [1], in [2], in [3], in assay [4], in assay [5] and in [6] was over 100 µM each time. Besides, the TGI in [7] and in assay [9] was over 100 µM in each case.

Turning to `OCC1OC(c2cccc3cc(O)c(O)cc23)CC1O` (centres undefined), the TGI in assay [10], in assay [1], in assay [2], in [3], in assay [4] and in [5] was over 100 µM each time. Also, the TGI in assay [6], in assay [7] and in assay [8] was over 100 µM in each case.

Turning to `CC(C)(C)[Si](OC1CC(n2cnc3c(N)ncnc32)OC1CO)(c1ccccc1)c1ccccc1` (centres undefined), the TGI in [1] is 34.8 µM; in [2], 35 µM; in [3], 50 µM; in assay [4], 30.2 µM; in assay [5] it was over 100 µM; in assay [6], 36.1 µM.

As to `COc1ccc(C2C(Cl)C(=O)N2n2cnc3ccccc3c2=O)cc1` (centres undefined), the TGI in [1], in assay [2], in assay [3], in [4], in assay [5] and in [6] was over 100 µM throughout. Moreover, the TGI in [7] and in assay [9] was over 100 µM throughout.

On to `COc1ccc(N2C(=O)CC(C3CC(C(C)(C)C)CCC3=O)C2=O)cc1` (centres undefined), for which the TGI in [10], in [2], in [3], in [4], in [5] and in assay [7] was over 100 µM throughout. Moreover, the TGI in [8] and in assay [9] was over 100 µM throughout.

Regarding `CCCCc1c(N(C)C)c(OC(C)=O)c(-c2cn(C)c3ccccc23)oc1=O`, the TGI was 72.2 µM in assay [10]; over 100 µM in [1]; 88.9 µM in assay [2]; 90.3 µM in assay [3]; 47.5 µM in assay [4]; 40.7 µM in assay [6]. In addition, the TGI is 53.7 µM in assay [7] and over 100 µM in assay [9].

Regarding `CCCCCCCCCC1(N=[N+]=[N-])C(=O)c2ccccc2N(C)C1=O` (centres undefined), the TGI in [10] was 74.6 µM; in [1], 82.9 µM; in assay [2], over 100 µM; in assay [3], over 100 µM; in assay [4] it was over 100 µM; in assay [5] it was over 100 µM. For the same compound, the TGI in assay [6] was 69 µM; in assay [7] it was over 100 µM; in assay [9], over 100 µM.

Regarding `COC(=O)c1ccc(C(=O)NC(Cc2ccc(Oc3cc(CC(NC(=O)c4ccccc4C(=O)OC)C(=O)OC)ccc3OC)cc2)C(=O)OC)cc1` (centres undefined), the TGI in assay [10], in [1], in [2], in assay [3], in [4] and in [5] was over 100 µM in each case. For the same compound, the TGI in assay [6], in [7] and in assay [9] was over 100 µM throughout.

Regarding `FC(F)(F)c1ccc(N=C/C=C(/Nc2ccc(C(F)(F)F)cc2)c2ccc(Cl)cc2)cc1`, the TGI in [1] was 38.3 µM; in assay [2], 33.2 µM; in [3], 25 µM; in assay [4], 24.8 µM; in [5] it was over 100 µM; in assay [6], 49.6 µM. Further, the TGI in assay [7] worked out at 25 µM; in assay [8], 37.7 µM; in assay [9], 19.6 µM.

With `N#Cc1nc2ccccc2nc1N1CCN(c2ccc([N+](=O)[O-])cc2)CC1`, the TGI in assay [10], in assay [1], in assay [2], in assay [3], in assay [4] and in assay [6] was over 100 µM in each case. Besides, the TGI in assay [7], in assay [8] and in assay [9] was over 100 µM in each case.

For the compound `COc1cc2cc3c4c(cc(OC)c(OC)c4c2cc1OC)CCN3C(=O)OCCN1CCNCC1`, the TGI in assay [1] was 31.9 µM; in [2], 23.3 µM; in assay [3] it was 43.3 µM; in assay [4], 25.8 µM; in [5] it was 31.2 µM; in [6], 34.2 µM. Further, the TGI in assay [7] worked out at 29.2 µM; in assay [9] it was 28.5 µM.

As to `CC(C)(C)OC(=O)N1CCc2[nH][nH]c(=O)c2C1`, the TGI in [10], in assay [2], in [3], in [4], in [5] and in [7] was over 100 µM in each case. Besides, the TGI in assay [8] and in assay [9] was over 100 µM in each case.

Regarding `Nc1ccc2c(c1)N(C(=O)c1cc3cc(NC(=O)c4cc5ccccc5o4)ccc3[nH]1)CC2CCl` (centres undefined), the TGI in [10] is 1.9 µM; in assay [1] it was over 38.3 µM; in assay [3] it was 16.1 µM; in assay [4], over 32.7 µM; in assay [6] it was 0.398 µM; in [7], over 100 µM. This compound also yielded a TGI in assay [9] of 12.9 µM.

Consider `CCc1cc2c(oc3cc4ccccc4cc32)c(=O)[nH]1`, for which the TGI in assay [10], in [1], in assay [2], in assay [3], in assay [4] and in assay [6] was over 10 µM each time. Besides, the TGI in assay [7] and in assay [8] was over 10 µM each time.
